Assay results as given in patent publication US20190014793A1, “METHOD OF PROVIDING NUTRITION TO INFANTS” (ABBOTT LABORATORIES, priority 2011, published 2019).

How the values were obtained:
[1] = Merck Index, 11th Ed.; cited from earlier work
[2] = Amino acid solubility considerations (estimated concentration v. solubility limit); format: physicochemical; details: % of solubility limit at 25° C.

Compound	Solubility limit of free amino acid, 25° C. [1] [mg/mL]	Sterile liquid protein concentration, % of limit [2] [%]
CC[C@H](C)[C@H](N)C(=O)O [Ile, Isoleucine]	41.2	22
CC(C)C[C@H](N)C(=O)O [Leu, Leucine]	24.26	67
N[C@@H](Cc1ccccc1)C(=O)O [Phe, L-phenylalanine]	29.6	27
N[C@@H](Cc1ccc(O)cc1)C(=O)O [Tyr, L-tyrosine]	–	400
CC(C)[C@H](N)C(=O)O [Val, Valine]	88.5	13
